Measurements from US20150030566A1, “ANTIMICROBIAL PEPTIDE COMPOSITIONS FOR PLANTS” (Stellenbosch University, priority 2012, published 2015).
Values after ≈ are worked out from the molar mass of the structure shown. Residues, ends and D or L forms follow the SMILES beside them.

What was measured:
Botrytis cinerea = assay: Microdilution broth assay; assay type: cell-based; parameters: MIC + SEM / MIC against B. cinerea in PDB (n): unit not given beside the values
Protocol: (§1) Microdilution broth and agar assays were used to assess the antifungal activity of the cyclic decapeptides in liquid media and on solid (gel) media, respectively.
(§2) The antibacterial activity of the tyrocidines and gramicidin S against all the bacteria tested was determined by the methods described by Du Toit E A and Rautenbach M (2000) J. Microbiol. Methods, 42, 159-165. The antifungal activity of the tyrocidines against all the […] tested was determined by the methods described by Troskie A M, Vlok N M and Rautenbach M (2012) J. Microbiol. Methods, 91, 551-558.

[1] = system: Bacillus spizizenii ATCC 6633; assay: Microdilution broth assay; assay type: cell-based; parameters: unit not given beside the values
Protocol: as §1, §2

Bacillus subtilis 168 = assay: Microdilution broth assay; assay type: cell-based; parameters: unit not given beside the values
Protocol: as §1, §2

[2] = system: Bacillus subtilis ATCC21332; assay: Microdilution broth assay; assay type: cell-based; parameters: unit not given beside the values
Protocol: as §1, §2

Bacillus subtilis OKB105 = assay: Microdilution broth assay; assay type: cell-based; parameters: unit not given beside the values
Protocol: as §1, §2

Bacillus subtilis OKB120 = assay: Microdilution broth assay; assay type: cell-based; parameters: unit not given beside the values
Protocol: as §1, §2

[3] = system: Cylindrocarpon liriodendri; assay: Microdilution broth assay; assay type: cell-based; parameters: unit not given beside the values
Protocol: as §1, §2

Escherichia coli HB101 = assay: Microdilution broth assay; assay type: cell-based; parameters: unit not given beside the values
Protocol: as §1, §2

[4] = system: Listeria monocytogenes B73-MR1; assay: Microdilution broth assay; assay type: cell-based; parameters: unit not given beside the values
Protocol: as §1, §2

[5] = system: Listeria monocytogenes B73; assay: Microdilution broth assay; assay type: cell-based; parameters: unit not given beside the values
Protocol: as §1, §2

[6] = system: Micrococcus luteus NCTG 8340; assay: Microdilution broth assay; assay type: cell-based; parameters: unit not given beside the values
Protocol: as §1, §2

[7] = system: Talaromyces mineoluteus (peach isolate); assay: Microdilution broth assay; assay type: cell-based; parameters: unit not given beside the values
Protocol: as §1, §2

[8] = system: Talaromyces ramulosus (peach isolate); assay: Microdilution broth assay; assay type: cell-based; parameters: unit not given beside the values
Protocol: as §1, §2

[9] = system: Trichoderma atroviride (wood isolate); assay: Microdilution broth assay; assay type: cell-based; parameters: unit not given beside the values
Protocol: as §1, §2

Fusarium solani = assay: Agar (gel) assay; assay type: cell-based
Protocol: as §1, §2

[10] = system: Penicillium digitatum (citrus isolate); assay: Agar assay; assay type: cell-based
Protocol: as §1, §2

[11] = system: Phaeoacremonium aleophilum; assay: Agar assay; assay type: cell-based
Protocol: as §1, §2

Cylindrocarpon = assay: Hydration tank assay, spore viability; assay type: cell-based
Protocol: (§3) This loss of activity in solution was, however, overcome by increasing the Trx mix concentration to 20 mg/L. It must also be emphasized that the Trc mix activity was tested at 10 times (10^7 spores/L) the spore concentration used for the testing of commercial fungicides and at 100 times the spore concentration usually observed in contaminated grapevine material (personal communication with the Department of Plant pathology, Stellenbosch University).
(§4) The activities of the GS and Trc mix were also assessed in the presence of and absence of grapevine stem material in a simulated hydration tank environment. Each 5.0 mL assay contained fungal spores at 10 000 spores/mL, peptide at 10 and 20 μg/mL and grapevine stem material. Grapevine stem material was washed with 70% ethanol and rinsed with sterile water before placement in inoculated hydration tanks, whereafter the Trc mix was added. Controls contained either the peptide or grapevine stem material. The assays were incubated at room temperature for 16 hours, whereafter three 100 μl aliquots of each assay were plated on PDA agar and allowed to grow for three days at 25° C. Some plates were stained with Coomassie brilliant blue stain (0.025% Coomassie, 12.5% isopropanol and 10% acetic acid) for better visualization of the fungal colonies. The number of colonies that developed after three days was recorded and expressed as percentage viable spores after comparing to the control samples which contained no peptide.

Phaeoacremonium = assay: Hydration tank assay, spore viability; assay type: cell-based
Protocol: as §3, §4

Phomopsis = assay: Hydration tank assay, spore viability; assay type: cell-based; conditions: 10 μg/ml peptide
Protocol: as §3, §4

[12] = system: African daisy (Gerbera hybrid); assay: Cut flower trials, Gerbera; assay type: in vivo; conditions: GS at 35 mg/L alone or in the GS+Trc mix
Protocol: Water uptake was initially better than observed for a commercial product for cut-flower preservation (FIG. 4A).
Cut flower trials on mini hybrids of the African daisy (Gerbera hybrid) and blue larkspur (Delphinium hybrid) were conducted on 3-day old flowers. Flowers were prepared by cutting 3-5 cm of each stem and each placed separately in a measuring flask with 100 mL containing either no additive, Trc mix (35 mg/L for Gerbera and 25 mg/l for Delphinium), GS (35 mg/L for Gerbera and 25 mg/L for Delphinium), Trc mix+GS (combined 70 mg/L for Gerbera and combined 50 mg/L for Delphinium) or commercial additive for flower preservation. Flowers (6-12 per trial) were kept in a room with both natural and fluorescent lighting (16 hours light/day) at 22±1° C. The volume of water was monitored every 24 hours and noted for each flower.
Flower condition was rated from 0 to 5, with 0=dead, 1=flower petals dehydrated, closed and drooping, 2=flower still partially open but dehydrated and drooping, 3=flower starts drooping, petals soft, 4=some petals becoming soft, flower still in good condition and 5=flower is in pristine condition with taught petals and stem/leaves.

[13] = system: Grapevine tissue culture plants; assay: Plant culture assay, growth and development of plantlets; assay type: in vivo; conditions: 15 mg/L in MS medium
Protocol: The Trc mix and GS were also tested for use in the sterilization of field-gathered grapevine material for use in plant cultures.
Grapevine tissue culture plants were transferred to MS medium containing GS or Trc mix at a concentration of 15 μg/mL and incubated at 25° C. with a 16 h/8 h day night cycle. The growth and development of the grapevine plantlets were monitored and compared to the control set of plants which were maintained on MS-medium without GS or Trc mix.

In the case of `CC(C)C[C@@H]1NC(=O)[C@H](CCCN)NC(=O)[C@H](C(C)C)NC(=O)C2CCCN2C(=O)[C@@H](Cc2ccccc2)NC(=O)[C@H](CC(C)C)NC(=O)[C@H](CCCN)NC(=O)[C@H](C(C)C)NC(=O)C2CCCN2C(=O)[C@@H](Cc2ccccc2)NC1=O` (stereo partly drawn) [GS, Cyclo-(VOLfPVOLfP)] (HELM PEPTIDE1{L.[dF].[O=C(C1CCCN1[*:1])[*:2]].V.[Orn].L.[dF].[O=C(C1CCCN1[*:1])[*:2]].V.[Orn]}$PEPTIDE1,PEPTIDE1,1:R1-10:R2$$$V2.0), the “MIC + SEM” value (Botrytis cinerea; Broth, Botrytis cinerea) is reported as 2.8 ± 0.3, the “MIC against B. cinerea in PDB (n)” value (Botrytis cinerea; potato dextrose broth (low salt PDB)) is reported as 1.8 ± 0.3 and the “MIC + SEM” value [1] is reported as 2.6 ± 0.2. For the same molecule, the “MIC + SEM” value (Bacillus subtilis 168) was 8-14, the “MIC + SEM” value [2] was 8-14 and the “MIC + SEM” value (Bacillus subtilis OKB105) was 8-14. For the same molecule, the “MIC + SEM” value (Bacillus subtilis OKB120) was 8-14, the “MIC + SEM” value [3] was 2.3 ± 0.1 and the “MIC + SEM” value (Escherichia coli HB101) was 44. For the same molecule, the “MIC + SEM” value [4] was 5.6 ± 0.1, the “MIC + SEM” value [5] was 9.9 ± 0.2 and the “MIC + SEM” value [6] was 28 ± 0.4. The “MIC + SEM” value [7] was 4.2 ± 0.2, the “MIC + SEM” value [8] was 3.0 ± 0.1 and the “MIC + SEM” value [9] was 4.8 ± 0.3. The “MIC + SEM” value (Fusarium solani; Agar, Fusarium solani) was 5.5 ± 1.3, the “IC50 ± SEM” value (Fusarium solani; F. solani on PDA) was 4.9 ± 1.2 µg/mL (≈ 4.29 µM) and the “MIC ± SEM” value (Fusarium solani; F. solani on PDA) was 6.3 ± 1.5 µg/mL (≈ 5.52 µM). For the same molecule, the “IC50 ± SEM” value (Fusarium solani; F. solani on YTSA) was 9.6 ± 0.5 µg/mL (≈ 8.41 µM), the “MIC ± SEM” value (Fusarium solani; F. solani on YTSA) was 19.9 ± 1.2 µg/mL (≈ 17.4 µM) and the “MIC + SEM” value [10] was <20. For the same molecule, the “MIC + SEM” value [11] was <10, the “percentage viable spores compared to the growth/survival controls” value (Cylindrocarpon; +gvs, 10 μg/ml peptide) was 0% and the “percentage viable spores compared to the growth/survival controls” value (Cylindrocarpon; +gvs, 20 μg/ml peptide) was 0%. The “percentage viable spores compared to the growth/survival controls” value (Cylindrocarpon; −gvs, 10 μg/ml peptide) was 0%, the “percentage viable spores compared to the growth/survival controls” value (Cylindrocarpon; −gvs, 20 μg/ml peptide) was 0% and the “percentage viable spores compared to the growth/survival controls” value (Phaeoacremonium; +gvs, 10 μg/ml peptide) was 0%. For the same molecule, the “percentage viable spores compared to the growth/survival controls” value (Phaeoacremonium; +gvs, 20 μg/ml peptide) was 0%, the “percentage viable spores compared to the growth/survival controls” value (Phaeoacremonium; −gvs, 10 μg/ml peptide) was 0% and the “percentage viable spores compared to the growth/survival controls” value (Phaeoacremonium; −gvs, 20 μg/ml peptide) was 0%. The “percentage viable spores compared to the growth/survival controls” value (Phomopsis; +gvs) was 0%, the “percentage viable spores compared to the growth/survival controls” value (Phomopsis; −gvs) was 0% and the “benefit to flower survival” value [12] was “did not benefit flower survival”. The phytotoxicity [12] was “may have led to some phytotoxicity”, the “effect on root growth” value [13] was “root growth was visibly affected” and the “effect on plant culture survival and growth” value ([13]; vs control plants) was “enhanced plant culture survival and foliage growth”.
